One series has as its target T1, human FSH receptor (Homo sapiens, UniProt P23945).
T1 construct: host or cells: CHO-K1 (CHO FSH-R 6CRE-Luc, 1D7 cells)
T1 sequence (P23945 18-695): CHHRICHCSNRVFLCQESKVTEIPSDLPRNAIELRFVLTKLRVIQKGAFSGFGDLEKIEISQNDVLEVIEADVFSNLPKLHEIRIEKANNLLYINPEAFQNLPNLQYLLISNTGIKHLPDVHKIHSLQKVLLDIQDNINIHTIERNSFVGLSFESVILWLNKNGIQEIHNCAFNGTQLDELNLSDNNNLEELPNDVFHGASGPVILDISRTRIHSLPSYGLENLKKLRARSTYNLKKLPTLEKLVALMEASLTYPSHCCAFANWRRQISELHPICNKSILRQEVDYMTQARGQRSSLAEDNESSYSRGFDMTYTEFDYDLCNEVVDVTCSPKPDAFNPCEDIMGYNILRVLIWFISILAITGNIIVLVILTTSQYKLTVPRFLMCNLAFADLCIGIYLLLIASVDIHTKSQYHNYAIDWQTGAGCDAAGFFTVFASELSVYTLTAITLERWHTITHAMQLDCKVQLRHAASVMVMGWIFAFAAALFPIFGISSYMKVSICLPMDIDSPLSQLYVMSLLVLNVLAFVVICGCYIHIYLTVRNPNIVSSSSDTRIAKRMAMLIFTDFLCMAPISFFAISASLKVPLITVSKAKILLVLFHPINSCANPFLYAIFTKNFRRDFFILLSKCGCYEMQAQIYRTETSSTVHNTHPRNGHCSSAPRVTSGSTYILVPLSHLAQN
Nature of the series: FSH receptor-dependent CRE-luciferase reporter gene assay (CHO FSH-R 6CRE-Luc, 1D7 cells). The following applies: for IC50: dose-response format in presence of EC50 of purified human FSH. The format is cell-based. As to the method: This procedure was used to identify and determine the relative potencies of human FSH receptor antagonists using a Chinese hamster ovarian cell line that stably produces the human FSH receptor and a luciferase reporter gene regulated by cAMP response elements.
The compounds were subsequently diluted in DMSO to working dilutions of 1 and 20 or 30 mM for 2-dose testing format and 1 μM-10 mM for dose-response format. The DMSO dilutions were diluted 500-fold in sterile growth medium [D-MEM/F-12 (GIBCO/BRL; Grand Island N.Y.) containing 15 mM HEPES, 2 mM 1-glutamine, pyridoxine hydrochloride, phenol red and 5% FetalClone II (HyClone Laboratories, Inc; Logan, Utah), 0.2% DMSO, 100 units penicillin G/ml, and 100 μg streptomycin sulfate/ml (GIBCO/BRL)]. The concentration of the vehicle in each of the compound dilutions was the same. POSITIVE CONTROLS: Purified human FSH (>98%) was purchased from Cortex Biochem, Inc. (San Leandro, Calif.) and a known FSH-R thiazolidinone antagonist was obtained from the Wyeth Research compound repository. Preparation of Cells
The CHO FSH-R 6CRE-Luc cells (1D7 cells) were obtained from Affymax (Palo Alto, Calif.). These Chinese hamster ovary cells (CHO-K1) were genetically engineered to stably express the recombinant human FSH receptor gene and a luciferase reporter gene under the regulation of 6 copies of a cAMP response element. The cells were plated one day prior to treatment into 96-well white opaque plates at a density of 50,000 cells/100 μl/well in growth medium. On the day of treatment, the growth medium was removed from the wells by aspiration and 50 µl of fresh growth medium was added to each well. The cells were incubated at 37° C. in a humidified incubator with 5% CO2/95% air.
The treated cells were incubated for 4 hours at 37° C. in a humidified incubator with 5% CO2/95% air. At the end of the incubation period, luciferase activity was measured by chemiluminescence using a commercially available kit (LucScreen, Tropix, Inc., Bedford, Mass.) according to the manufacturer's specifications, except that Buffer 1 and Buffer 2 were mixed together in equal proportion prior to the addition of 100 μl of the combined reagents to each well. Chemiluminescence was detected using a luminometer (EG & G Berthold Microlumat LB 96 P, Wallac, Gaithersburg, Md.) with chemiluminescence measured for 1 sec/well.
Background luminescence was measured for each well prior to the addition of the LucScreen reagent.
In the 96-well 2-dose format, each compound was tested in duplicate at each dose. […] One plate was used to test a maximum of 22 compounds.
The EC50 of purified human FSH alone was tested in triplicate with each test compound. The doses chosen to test each compound were extrapolated from the initial 2-dose screening process. Along with the test compounds, purified human FSH was also tested in a dose response (0.03, 0.1, 0.3, 1, 3, 10, and 30 ng/ml) for a positive control and quality control. One plate was used for 3 test compounds and the FSH positive control.
Luciferase activity is expressed as relative light units/sec/well. Luciferase activity in antagonist was compared to the appropriate negative and positive controls. For 2-dose testing, results are reported as luciferase activity and are expressed as % inhibition of the response obtained from the EC50 of FSH. For dose-response testing, results are reported as IC50 values. Data were analyzed statistically by one-way analysis of variance with appropriate weighting and transformation and relevant paired test as determined by Biometrics (Wyeth Research, Princeton, N.J.). IC50 values were calculated using the Stat/Excel program developed by Biometrics with appropriate weighting and transformation.
For orientation: A reporter such as luciferase makes a cellular process visible.

A further series deals with T2, hFSH-R (Homo sapiens, UniProt P23945).
T2 construct: expressed in transfected cells; host or cells: CHO-3D2 cells
T2 sequence (P23945 18-695): T1 sequence (P23945 18-695)
In words: cAMP accumulation (RIA) in CHO-3D2 cells (hFSH-R), hFSH-induced. The class given is cell-based. The following applies: for Emax: read-out: cAMP % Efficacy. The procedure: COMPOUND VEHICLE: Stock compounds were solubilized in 100% DMSO (Sigma Chemical Co.) at a concentration of 30 mM. The compounds were subsequently diluted in sterile assay medium consisting of Opti-MEM® I (Life Technologies) with 0.1% (w/v) BSA (Sigma), prior to use in the bio-assay. The final concentration of DMSO in the assay is 0.1%.
Plated cells are then incubated at 37° C. in a humidified 5% CO2/95% air, atmosphere.
On the day of the assay, cells were washed three times with 100 μl/well of assay medium consisting of Opti-MEM® I (Life Technologies) with 0.1% (w/v) BSA (Sigma). Medium was removed and 100 μl of assay medium was added to each well. Plates were incubated for an additional 30 minutes at 37° C. […] Reactions were terminated by the addition of 50 μl of 0.2N hydrochloric acid to each well and cAMP-accumulation was measured by radioimmunoassay (RIA) using a commercially available kit (Amersham).
All test compounds were evaluated in a dose-response paradigm ranging from about 0.01 to about 30 μM. Controls and test compounds were evaluated in quadruplicate in a 96-well format.
Along with the test compounds, FSH was also run as a positive control in the agonist mode using concentrations ranging from about 0.1-1000 ng/ml.
Data were analyzed by one-way analysis of variance and significant differences between treatments and control determined by Least Significant Difference test.
Test compounds were compared to the effect of purified human FSH.
For orientation: cAMP levels reflect the balance of adenylyl cyclase and phosphodiesterase activity.

The melting point is the temperature of the solid-liquid transition. Molecule `Cc1ccccc1-c1ccc(C(=O)N2Cc3ccc(C(=O)NCc4csc(-c5ccc(Cl)cc5)n4)n3Cc3ccccc32)cc1C` [Example 11, N-{[2-(4-Chlorophenyl)-1,3-thiazol-4-yl]methyl}-10-[(2,2′-dimethyl-1,1′-biphenyl-4-yl)carbonyl]-10,11-dihydro-5H-pyrrolo[2,1-c][1,4]benzodiazepine-3-carboxamide] gave a melting point of 198 to 201 °C.

For orientation: inhibition means the drop in the measured response relative to a control, in per cent. Take `COc1ccccc1-c1ccc(C(=O)N2Cc3ccc(C(=O)NCC4CN(Cc5ccccc5)CCO4)n3Cc3ccccc32)cc1` (centres unmarked) [Example 7, N-[(4-Benzylmorpholin-2-yl)methyl]-10-[(2′-methoxy-1,1′-biphenyl-4-yl)carbonyl]-10,11-dihydro-5H-pyrrolo[2,1-c][1,4]benzodiazepine-3-carboxamide]: the melting point fell in the range of 180 to 182 °C. For the same molecule, on human FSH receptor (2-dose format, test concentration 30 μM in parentheses, % inhibition of the response to EC50 of FSH), the inhibition at 30 µM worked out at 26%.

Usually IC50 stands for the concentration at which inhibition is half-maximal. In the case of `Cc1cc(C(=O)N2Cc3ccc(C(=O)NCc4cccn4C)n3Cc3ccccc32)ccc1-c1c(C)cccc1C` [Example 8, N-[(1-Methyl-1H-pyrrol-2-yl)methyl]-10-[(2,2′,6′-trimethyl-1,1′-biphenyl-4-yl)carbonyl]-10,11-dihydro-5H-pyrrolo[2,1-c][1,4]benzodiazepine-3-carboxamide], the melting point fell in the range of 222 to 224 °C. In addition, the half-maximal inhibitory concentration (IC50) on human FSH receptor was over 30 µM.

As to `Cc1ccccc1-c1ccc(C(=O)N2Cc3ccc(C(=O)NCC4CCCNC4)n3Cc3ccccc32)cc1C` (centres unmarked) [Example 12, 10-[(2,2′-Dimethyl-1,1′-biphenyl-4-yl)carbonyl]-N-(piperidin-3-ylmethyl)-10,11-dihydro-5H-pyrrolo[2,1-c][1,4]benzodiazepine-3-carboxamide], the IC50 on human FSH receptor was over 30 µM.

Molecule `COc1ccccc1-c1ccc(C(=O)N2Cc3ccc(C(=O)NCc4cccn4C)n3Cc3ccccc32)cc1` [Example 2, 10-[(2′-Methoxy-1,1′-biphenyl-4-yl)carbonyl]-N-[(1-methyl-1H-pyrrol-2-yl)methyl]-10,11-dihydro-5H-pyrrolo[2,1-c][1,4]benzodiazepine-3-carboxamide] registered a melting point of 148 to 150 °C. On hFSH-R, the IC50 is 1.2 µM and the Emax is 79%. Also, the IC50 on human FSH receptor is 42.6 µM.

In turn, `COc1ccc(-c2nc(CNC(=O)c3ccc4n3Cc3ccccc3N(C(=O)c3ccc(-c5ccccc5C)c(C)c3)C4)no2)cc1` [Example 10, 10-[(2,2′-Dimethyl-1,1′-biphenyl-4-yl)carbonyl]-N-{[5-(4-methoxyphenyl)-1,2,4-oxadiazol-3-yl]methyl}-10,11-dihydro-5H-pyrrolo[2,1-c][1,4]benzodiazepine-3-carboxamide] returned a melting point of 133 to 135 °C.

`COc1ccccc1-c1ccc(C(=O)N2Cc3ccc(C(=O)NCc4cc(C)on4)n3Cc3ccccc32)cc1` [Example 5, 10-[(2′-Methoxy-1,1′-biphenyl-4-yl)carbonyl]-N-[(5-methylisoxazol-3-yl)methyl]-10,11-dihydro-5H-pyrrolo[2,1-c][1,4]benzodiazepine-3-carboxamide] gave a melting point of 111 to 113 °C. On hFSH-R, the IC50 is 0.6 µM and the Emax worked out at 96%. Also, the IC50 at human FSH receptor is 10.2 µM.

Regarding `Cc1cc(CNC(=O)c2ccc3n2Cc2ccccc2N(C(=O)c2ccc(-c4c(C)cccc4C)c(C)c2)C3)no1` [Example 4, N-[(5-Methylisoxazol-3-yl)methyl]-10-[(2,2′,6′-trimethyl-1,1′-biphenyl-4-yl)carbonyl]-10,11-dihydro-5H-pyrrolo[2,1-c][1,4]benzodiazepine-3-carboxamide], the melting point was 233 to 234 °C. For the same molecule, the IC50 on human FSH receptor is over 30 µM.

`COc1ccccc1-c1ccc(C(=O)N2Cc3ccc(C(=O)NCc4cc(C)oc4C)n3Cc3ccccc32)cc1` [Example 6, N-[(2,5-Dimethyl-3-furyl)methyl]-10-[(2′-methoxy-1,1′-biphenyl-4-yl)carbonyl]-10,11-dihydro-5H-pyrrolo[2,1-c][1,4]benzodiazepine-3-carboxamide]: at hFSH-R, the IC50 stood at 0.3 µM and the Emax is 81%. The IC50 on human FSH receptor was 3.3 µM.

Source of the values: patent US7687623B2, “Pyrrolobenzodiazepines and heterocyclic carboxamide derivatives as follicle stimulating hormone receptor (FSH-R) antagonists” (Wyeth LLC, priority 2005, dated 2010).
